# Experimental data: the Kinase Knowledgebase extract (Sharma et al. 2016)
# Target: PIK3CB;PIK3CG;PIK3CD;PIK3CA (human) (UniProt P48736)
# Assay: Enzyme Assay
row,SMILES,IC50 [nM]
1,O=C(c1nn(C2CCCN(CCC3CCOCC3)C2)c2c1CS(=O)(=O)c1ccccc1-2)N1CCOCC1 (stereo unspecified),54
2,Cc1ccc2c(c1)-c1c(c(C(=O)N3CCOCC3)nn1-c1ccccc1)CS2(=O)=O,1500
3,O=C(O)c1nn(-c2ccc(CN3CCOCC3)cc2)c2c1CS(=O)(=O)c1ccccc1-2,4040
4,O=C(c1nn(-c2cccnc2)c2c1CS(=O)(=O)c1ccccc1-2)N1CCOCC1,1130
5,O=C(c1nn([C@H]2CCCN(CCN3CCC(F)CC3)C2)c2c1CS(=O)(=O)c1ccccc1-2)N1CCOCC1,25
6,O=C(c1nn(C2CCCN(CCN3CC[C@@H](F)C3)C2)c2c1CS(=O)(=O)c1ccccc1-2)N1CCOCC1 (stereo partly specified),34
7,O=C(c1nn(C2CCCCC2)c2c1CS(=O)(=O)c1ccccc1-2)N1CCOCC1,136
8,O=C(c1nn([C@H]2CCCN(C3CCCNC3)C2)c2c1CS(=O)(=O)c1ccccc1-2)N1CCOCC1 (stereo partly specified),25
9,O=C(c1nn(C2CCNCC2)c2c1CS(=O)(=O)c1ccccc1-2)N1CCOCC1,1520
10,O=C(c1ccc(-n2nc(C(=O)N3CCOCC3)c3c2-c2ccccc2S(=O)(=O)C3)cc1)N1CCOCC1,274
11,O=C(c1nn(-c2ccccc2)c2c1CS(=O)(=O)c1ccccc1-2)N1CCOC(CO)C1 (stereo unspecified),6530
12,COCCNCc1ccc(-n2nc(C(=O)N3CCOCC3)c3c2-c2ccccc2S(=O)(=O)C3)cc1,164
13,O=C(c1nn(-c2cccc(Cn3ccnc3)c2)c2c1CS(=O)(=O)c1ccccc1-2)N1CCOCC1,673
14,CN1CCC(OCCN2CCC[C@H](n3nc(C(=O)N4CCOCC4)c4c3-c3ccccc3S(=O)(=O)C4)C2)CC1,20
15,CC(C)(C)OC(=O)N1CCCC(n2nc(C(=O)N3CCOCC3)c3c2-c2ccccc2S(=O)(=O)C3)C1 (stereo unspecified),1540
16,O=C(c1nn(C2CCCC(C(=O)N3CCCCC3)C2)c2c1CS(=O)(=O)c1ccccc1-2)N1CCOCC1 (stereo unspecified),362
17,O=C(c1nn(-c2ccccc2)c2c1C(Cc1ccccc1)S(=O)(=O)c1ccccc1-2)N1CCOCC1 (stereo unspecified),2480
18,O=C(c1nn([C@@H]2CCCN(CCN3CCOCC3)C2)c2c1CS(=O)(=O)c1ccccc1-2)N1CCOCC1,1280
19,O=C(c1nn(C2CCCN(CCC3CCOCC3)C2)c2c1CS(=O)(=O)c1c(Cl)cccc1-2)N1CCOCC1 (stereo unspecified),38
20,COc1ccc2c(c1)S(=O)(=O)Cc1c(C(=O)N3CCOCC3)nn([C@H]3CCCN(CCC4CCOCC4)C3)c1-2,27
21,COC1CCN(Cc2cccc(-n3nc(C(=O)N4CCOCC4)c4c3-c3ccccc3S(=O)(=O)C4)c2)CC1,240
22,O=C(c1nn(CC2CCCC2)c2c1CS(=O)(=O)c1ccccc1-2)N1CCOCC1,247

row,SMILES,IC50 [nM]
1,CC(=O)Nc1nc2c(s1)S(=O)(=O)Cc1c(C(=O)N3CCOCC3)nn(C3CCOCC3)c1-2,284
2,O=C(c1ccc(-n2nc(C(=O)N3CCOCC3)c3c2-c2ccccc2S(=O)(=O)C3)cc1)N1CCCCC1,238
3,CS(=O)(=O)N1CCCC(n2nc(C(=O)N3CCOCC3)c3c2-c2ccccc2S(=O)(=O)C3)C1 (stereo unspecified),994
4,O=C(Nc1cccnc1)c1cccc(-n2nc(C(=O)N3CCOCC3)c3c2-c2ccccc2S(=O)(=O)C3)c1,926
5,CCCn1nc(C(=O)N2CCOCC2)c2c1-c1ccccc1S(=O)(=O)C2,641
6,O=C(c1nn(C2CCCN(CCC3CCCCC3)C2)c2c1CS(=O)(=O)c1ccccc1-2)N1CCOCC1 (stereo unspecified),155
7,O=C(c1nn(C2CCOC2)c2c1CS(=O)(=O)c1ccccc1-2)N1CCOCC1 (stereo unspecified),890
8,CN1CCCC(N2CCC[C@H](n3nc(C(=O)N4CCOCC4)c4c3-c3ccccc3S(=O)(=O)C4)C2)C1 (stereo partly specified),18
9,Cn1nc(C(=O)N2CCOCC2)c2c1-c1ccccc1S(=O)(=O)C2Cc1ccccc1 (stereo unspecified),5270
10,O=C(c1nn(-c2ccc(CN3CCCCC3)nc2)c2c1CS(=O)(=O)c1ccccc1-2)N1CCOCC1,370
11,COCCNCCN1CCC[C@H](n2nc(C(=O)N3CCOCC3)c3c2-c2ccccc2S(=O)(=O)C3)C1,34
12,O=C(c1nn(C2CCCNCC2)c2c1CS(=O)(=O)c1ccccc1-2)N1CCOCC1 (stereo unspecified),1900
13,O=C(c1ccoc1)N1CCC[C@H](n2nc(C(=O)N3CCOCC3)c3c2-c2ccccc2S(=O)(=O)C3)C1,750
14,CCc1nc(-c2cccc(-n3nc(C(=O)N4CCOCC4)c4c3-c3ccccc3S(=O)(=O)C4)c2)no1,2590
15,CC(C)(C)CCN1CCCC(n2nc(C(=O)N3CCOCC3)c3c2-c2ccccc2S(=O)(=O)C3)C1 (stereo unspecified),587
16,O=C(c1nn(-c2cccc(CN3CCSCC3)c2)c2c1CS(=O)(=O)c1ccccc1-2)N1CCOCC1,232
17,COCCNc1ccc2c(c1)-c1c(c(C(=O)N3CCOCC3)nn1C1CCCCC1)CS2(=O)=O,1390
18,CC(C)(C)C1CCC(n2nc(C(=O)N3CCOCC3)c3c2-c2ccccc2S(=O)(=O)C3)CC1 (stereo unspecified),4120
19,COCc1ccc(-n2nc(C(=O)N3CCOCC3)c3c2-c2ccccc2S(=O)(=O)C3)cc1,667
20,COc1ccc(C(=O)Cn2nc(C(=O)N3CCOCC3)c3c2-c2ccccc2S(=O)(=O)C3)cc1,14500
21,COc1cccc2c1S(=O)(=O)Cc1c(C(=O)N3CCOCC3)nn([C@H]3CCCN(CCN4CCOCC4)C3)c1-2,59
22,Cn1cc(-n2nc(C(=O)N3CCOCC3)c3c2-c2ccsc2S(=O)(=O)C3)ccc1=O,2690

row,SMILES,IC50 [nM]
1,COCCCN1CCCC(n2nc(C(=O)N3CCOCC3)c3c2-c2ccccc2S(=O)(=O)C3)CC1 (stereo unspecified),438
2,O=C(c1nn([C@@H]2CCCN(C3CCOCC3)CC2)c2c1CS(=O)(=O)c1ccccc1-2)N1CCOCC1,104
3,COCCN(C)CCN1CCC[C@H](n2nc(C(=O)N3CCOCC3)c3c2-c2ccccc2S(=O)(=O)C3)C1,45
4,CCC1c2c(C(=O)N3CCOCC3)nn(-c3ccccc3)c2-c2ccccc2S1(=O)=O (stereo unspecified),2470
5,O=C(c1nn(-c2cccc(CN3CCC(O)CC3)c2)c2c1CS(=O)(=O)c1ccccc1-2)N1CCOCC1,573
6,CCCCNc1ccc2c(c1)S(=O)(=O)Cc1c(C(=O)N3CCOCC3)nn(-c3ccccc3)c1-2,9790
7,O=C(c1nn(C2CCCN(CCN3CC(F)(F)C3)C2)c2c1CS(=O)(=O)c1c(F)cccc1-2)N1CCOCC1 (stereo unspecified),38
8,CS(=O)(=O)Nc1ccc2c(c1)-c1c(c(C(=O)N3CCOCC3)nn1-c1ccccc1)CS2(=O)=O,1310
9,CS(=O)(=O)C1CCN(Cc2ccc(-n3nc(C(=O)N4CCOCC4)c4c3-c3ccccc3S(=O)(=O)C4)cc2)C1 (stereo unspecified),920
10,O=C(c1nn(N2CCOCC2)c2c1C(F)S(=O)(=O)c1ccccc1-2)N1CCOCC1 (stereo unspecified),9800
11,CC(=O)Nc1ccc2c(c1)-c1c(c(C(=O)N3CCOCC3)nn1-c1ccccc1)CS2(=O)=O,876
12,COc1ccc(Cn2nc(C(=O)N3CCOCC3)c3c2-c2ccccc2S(=O)(=O)C3)cc1,459
13,Cc1noc(C)c1-c1cccc(-n2nc(C(=O)N3CCOCC3)c3c2-c2ccccc2S(=O)(=O)C3)c1,300
14,O=C(c1nn(C2CCCN(CCC(C(F)(F)F)C(F)(F)F)C2)c2c1CS(=O)(=O)c1ccccc1-2)N1CCOCC1 (stereo unspecified),679
15,O=C(c1nn([C@@H]2CCN(C3CCOCC3)C2)c2c1CS(=O)(=O)c1c(F)cccc1-2)N1CCOCC1,2040
16,O=C(c1nn(-c2ccc(CN3CC(F)C3)cc2)c2c1CS(=O)(=O)c1ccccc1-2)N1CCOCC1,229
17,Cn1nc(C(=O)N2CCOCC2)c2c1-c1ccccc1S(=O)(=O)C2,1750
18,CS(=O)(=O)c1cccc(-n2nc(C(=O)N3CCOCC3)c3c2-c2ccccc2S(=O)(=O)C3)c1,2560
19,O=C(c1nn(C2CCN(CC3CCOC3)C2)c2c1CS(=O)(=O)c1c(F)cccc1-2)N1CCOCC1 (stereo unspecified),57
20,CC(=O)N1CCC(Cn2nc(C(=O)N3CCOCC3)c3c2-c2ccccc2S(=O)(=O)C3)CC1,2820
21,O=C(c1nn(C2CCCN(CCO)C2)c2c1CS(=O)(=O)c1ccccc1-2)N1CCOCC1 (stereo unspecified),815
22,O=C(c1nn([C@H]2CCN(C3CCOCC3)C2)c2c1CS(=O)(=O)c1c(F)cccc1-2)N1CCOCC1,52

row,SMILES,IC50 [nM]
1,O=C(c1nn([C@H]2CCCN(C(=O)C3CCOCC3)C2)c2c1CS(=O)(=O)c1ccccc1-2)N1CCOCC1,1500
2,O=C(c1nn([C@@H]2CCCN(CCN3CCOCC3)C2)c2c1CS(=O)(=O)c1c(Cl)cccc1-2)N1CCOCC1,5230
3,O=C(c1nn(-c2ccccc2)c2c1CS(=O)(=O)c1ccccc1-2)N1CCCOCC1,9070
4,O=C(c1nn(C2CCCNC2)c2c1CS(=O)(=O)c1ccccc1-2)N1CCOCC1 (stereo unspecified),3010
5,O=C1CCCN1CCN1CCC[C@H](n2nc(C(=O)N3CCOCC3)c3c2-c2ccccc2S(=O)(=O)C3)C1,80
6,Cc1ccc(-n2nc(C(=O)N3CCOCC3)c3c2-c2ccccc2S(=O)(=O)C3)cc1,690
7,O=C(c1cccc(-n2nc(C(=O)N3CCOCC3)c3c2-c2ccccc2S(=O)(=O)C3)c1)N1CCC(O)CC1,371
8,COc1ccc2c(c1)S(=O)(=O)Cc1c(C(=O)N3CCOCC3)nn(-c3ccccc3)c1-2,349
9,COc1ccc2c(c1)S(=O)(=O)Cc1c(C(=O)N3CCOCC3)nn([C@H]3CCCN(CC4CCOC4)C3)c1-2 (stereo partly specified),44
10,O=C(c1nn(C2CCCN(CCF)C2)c2c1CS(=O)(=O)c1ccccc1-2)N1CCOCC1 (stereo unspecified),320
11,CC1CN(Cc2ccc(-n3nc(C(=O)N4CCOCC4)c4c3-c3ccccc3S(=O)(=O)C4)cc2)CCO1 (stereo unspecified),105
12,O=C(c1nn(-c2ccccc2)c2c1CS(=O)(=O)c1nccn1-2)N1CCOCC1,477
13,O=C(c1nn([C@H]2CCN(CCN3CCC(F)CC3)C2)c2c1CS(=O)(=O)c1ccccc1-2)N1CCOCC1,55
14,CC1CN(Cc2ccc(-n3nc(C(=O)N4CCOCC4)c4c3-c3ccccc3S(=O)(=O)C4)cc2)CC(C)O1 (stereo unspecified),57
15,O=C(c1nn([C@H]2CCCN(Cc3ccncc3)C2)c2c1CS(=O)(=O)c1ccccc1-2)N1CCOCC1,45
16,O=C(c1nn(-c2ccc(CN3CC(F)(F)C3)cc2)c2c1CS(=O)(=O)c1ccccc1-2)N1CCOCC1,395
17,O=C(c1cccc(-n2nc(C(=O)N3CCOCC3)c3c2-c2ccccc2S(=O)(=O)C3)c1)N1CCOCC1,73
18,O=C(c1nn([C@@H]2CCN(C3CCOCC3)C2)c2c1CS(=O)(=O)c1ccccc1-2)N1CCOCC1,45
19,COC1CCN(CCN2CCC[C@H](n3nc(C(=O)N4CCOCC4)c4c3-c3ccccc3S(=O)(=O)C4)C2)C1 (stereo partly specified),25
20,O=C(c1cccc(-n2nc(C(=O)N3CCOCC3)c3c2-c2ccccc2S(=O)(=O)C3)c1)N1CCCC(O)C1 (stereo unspecified),348
